This is an account of results in patent US9730455B2, “Composition comprising a biological control agent and an insecticide” (Bayer CropScience AG, priority 2012, dated 2017).

Where two headings read alike, the source gives them in different places.

Common to all, as to format: in vivo
Data set [1] has as its system mustard beetle larvae (Phaedon cochleariae). Briefly: Phaedon cochleariae - spray test. Conditions: foliar; for mortality at 0.8 g/ha: 0.8 g ai/ha, after 6 d. On the procedure: (§1) Formula for the efficacy of the combination of two compounds • The expected efficacy of a given combination of two compounds is calculated as follows (see Colby, S.R., “Calculating Synergistic and antagonistic Responses of Herbicide Combinations”, Weeds 15, pp. 20-22, 1967): • If • X is the efficacy expressed in % mortality of the untreated control for test compound A at a concentration of m ppm respectively m g/ha, • Y is the efficacy expressed in % mortality of the untreated control for test compound B at a concentration of n ppm respectively n g/ha, • E is the efficacy expressed in % mortality of the untreated control using the mixture of A and B at m and n ppm respectively m and n g/ha, • then is
• Solvent: 78.0 parts by weight of acetone • 1.5 parts by weight of dimethylformamide • Emulsifier: alkylaryl polyglycol ether
(§2) To produce a suitable preparation of active compound, 1 part by weight of active compound is mixed with the stated amount of solvents and is diluted with water, containing an emulsifier concentration of 1000 ppm, to the desired concentration. To produce a suitable preparation of a spore suspension the spores are diluted with emulsifier containing water to the desired concentration. Further test concentrations are prepared by dilution with emulsifier containing water.
Chinese cabbage (Brassica pekinensis) leaf-disks are sprayed with a preparation of the active ingredient of the desired concentration. Once dry, the leaf disks are infested with mustard beetle larvae (Phaedon cochleariae).
After the specified period of time, mortality in % is determined. 100% means all beetle larvae have been killed and 0% means none of the beetle larvae have been killed. The mortality values determined thus are recalculated using the Colby-formula (see sheet 1).

The test system of data set [2] is fall armyworm larvae (Spodoptera frugiperda). The experiment in a line: Spodoptera frugiperda - spray test. The following applies: maize leaf sections; for mortality at 3.75 g/ha: 3.75 g ai/ha. On the procedure: as §1
(§3) • Solvent: 78.0 parts by weight acetone • 1.5 parts by weight dimethylformamide • Emulsifier: alkylaryl polyglycol ether
as §2
Maize (Zea mais) leaf sections are sprayed with a preparation of the active ingredient of the desired concentration. Once dry, the leaf sections are infested with fall armyworm larvae (Spodoptera frugiperda).
After the specified period of time, mortality in % is determined. 100% means all caterpillars have been killed and 0% means none of the caterpillars have been killed. The mortality values determined thus are recalculated using the Colby-formula (see sheet 1).

Data set [3] has as its system two spotted spidermite (Tetranychus urticae), OP-resistant. Briefly: Tetranychus urticae - spray test, OP-resistant. Conditions: French beans. On the procedure: as §1, §3, §2
French beans (Phaseolus vulgaris) which are heavily infested with all stages of the two spotted spidermite (Tetranychus urticae), are sprayed with a preparation of the active ingredient of the desired concentration.
After the specified period of time, mortality in % is determined. 100% means all spider mites have been killed and 0% means none of the spider mites have been killed. The mortality values determined thus are recalculated using the Colby-formula (see sheet 1).

The test system of data set [4] is green peach aphid (Myzus persicae). The experiment in a line: Myzus persicae - spray test. The following applies: foliar, 24 h, after 1 d, Chinese cabbage leaf disks, read-out: Efficacy in % after 1^d (mortality). How it is done:
as §1, §3
To produce a suitable preparation of active compound, 1 part by weight of active compound is mixed with the stated amount of solvents and is diluted with water, containing an emulsifier concentration of 1000 ppm, to the desired concentration. To produce a suitable preparation of a spore suspension the spores are diluted with emulsifier containing water to the desired concentration. […]
After the specified period of time, mortality in % is determined. […] The mortality values determined thus are recalculated using the Colby-formula (see sheet 1).

Where [5] appears, read: 144 h, Chinese cabbage leaf disks, read-out: Efficacy in % after 6^d (mortality).

Broadly, the mortality is the percentage killed. For `CNC(=O)c1cc(Cl)cc(C)c1NC(=O)c1cc(Br)nn1-c1ncccc1Cl` [Chlorantraniliprole], the mortality at 0.8 g/ha in data set [1] (setting [5]) is 33%; in data set [2] (Spodoptera frugiperda, 48 h, 0.8 g ai/ha, after 2 d, read-out: Efficacy in % after 2^d (mortality)), 67%. The mortality at 0.16 g/ha in data set [2] (Spodoptera frugiperda, 144 h, 0.16 g ai/ha, after 6 d, read-out: Efficacy in % after 6^d (mortality)) came out at 0%.

For `CS/C(C)=N\OC(=O)N(C)SN(C)C(=O)O/N=C(\C)SC` [Thiodicarb], the mortality at 3.75 g/ha in data set [2] (Spodoptera frugiperda, 48 h, after 2 d, read-out: Efficacy in % after 2^d (mortality)) was determined as 0%; in data set [2] (Spodoptera frugiperda, 144 h, after 6 d, read-out: Efficacy in % after 6^d (mortality)) it was 0%. The mortality at 7.5 g/ha in data set [2] (Spodoptera frugiperda, 48 h, 7.5 g ai/ha, after 2 d, read-out: Efficacy in % after 2^d (mortality)) was 67%.

As for Spinosad, the “Efficacy in % after 6^d (mortality)” value was 0% in data set [2] (0.8 g ai/ha, after 6 d) and 0% in data set [3] (20 g ai/ha). In addition, the “Efficacy in % after 2^d (mortality)” value in data set [2] (4 g ai/ha, after 2 d) was 50%.

`N#C/N=C1\SCCN1Cc1ccc(Cl)nc1` [Thiacloprid]: the mortality at 4 g/ha in data set [4] (4 g ai/ha) is 0%. Also, in data set [3] (Tetranychus urticae, 48 h, 20 g ai/ha, after 2 d, read-out: Efficacy in % after 2^d (mortality)), the mortality at 20 g/ha was found to be 40%.

In the case of Spinetoram, the “Efficacy in % after 6^d (mortality)” value turned out to be 0% in data set [2] (0.032 g ai/ha, after 6 d) and 0% in data set [3] (0.08 g ai/ha). Besides, the “Efficacy in % after 2^d (mortality)” value is given as 67% in data set [2] (0.08 g ai/ha, after 2 d) and 0% in data set [3] (0.4 g ai/ha, after 2 d).

On to `CN1COCN(Cc2cnc(Cl)s2)/C1=N\[N+](=O)[O-]` [Thiamethoxam], for which the mortality at 0.8 g/ha in data set [4] (0.8 g ai/ha) turned out to be 0%.

As to `CN/C(=N\[N+](=O)[O-])NCc1cnc(Cl)s1` [Clothianidin], the mortality at 20 g/ha in data set [2] (Spodoptera frugiperda, 144 h, 20 g ai/ha, after 6 d, read-out: Efficacy in % after 6^d (mortality)) came to 0%.

Regarding `CNC(=O)c1cc(C#N)cc(C)c1NC(=O)c1cc(Br)nn1-c1ncccc1Cl` [Cyantraniliprole], the mortality at 4 g/ha in data set [1] (48 h, 4 g ai/ha, after 2 d, Chinese cabbage leaf disks, read-out: Efficacy in % after 2^d (mortality)) amounted to 0%. Also, the mortality at 0.8 g/ha in data set [1] (setting [5]) was 0%.

In the case of `CNC(=O)Oc1cc(C)c(SC)c(C)c1` [Methiocarb], in data set [1] (in Brassica rapa, 144 h, read-out: Efficacy in % after 6^d (mortality)), the mortality at 10 g/ha is 50%.
